Values of other authors, collected in Sander's compilation of Henry's law constants (doi:10.1063/1.1564818).

Experiment: Henry solubility constant Hcp at 298.15 K (mol/(m3 Pa))
Conditions: reference: Fernández-Prini et al. (2003); cited value

Structure (SMILES) | Henry solubility constant Hcp
[Ar] [argon] | 1.4e-05
FS(F)(F)(F)(F)F [sulfur hexafluoride] | 2.5e-06
[Ne] [neon] | 4.5e-06
O=O [oxygen] | 1.3e-05
[Kr] [krypton] | 2.5e-05
O=C=O [carbon dioxide] | 0.00033
[He] [helium] | 3.9e-06
[Xe] [xenon] | 4.4e-05
[C-]#[O+] [carbon monoxide] | 9.7e-06
[HH] [hydrogen] | 7.8e-06
